According to article PMC9667546, “Selective Inhibition of Bruton’s Tyrosine Kinase by a Designed Covalent Ligand Leads to Potent Therapeutic Efficacy in Blood Cancers Relative to Clinically Used Inhibitors” (ACS Pharmacology & Translational Science, 2022):
“And” between values parts separate entries of the source, which are not always exact repeats. Equal values may be shown once. Blank lines part the entries; values can stand above or below the molecule they belong to.

How the values were obtained:
[1] = system: Raji cells (BL); assay: Cell viability assay (CellTiter-Glo), Raji; format: cell-based; conditions: Homo sapiens, 72 h, n = 3
Description: (§1) All cell lines were purchased from ATCC, except for DoHH-2 cells that were obtained from DSMZ. Cells were cultivated in complete DMEM supplemented with 10% (vol/vol) FBS (Gibco) and 1% of penicillin/streptomycin (Gibco). The cells were grown in a humidified atmosphere of 5% CO2 at 37°C, with the medium changed every other day.
(§2) Cells were inoculated at a density of 5000 cells/well. Serially diluted compounds (starting at 50 μM) were added 24 h later. The assay was performed in triplicates. After 72 h of incubation, cellular viability was assessed by CellTiter-Glo (Promega) according to the manufacturer’s instructions. The values were normalized with the vehicle (DMSO), and the IC50 was calculated using GraphPad Prism 8.

[2] = system: DoHH-2 cells (DLBCL); assay: Cell viability assay (CellTiter-Glo), DoHH-2; format: cell-based; conditions: Homo sapiens, 72 h, n = 3
Description: as §1, §2

[3] = system: MOLM-13 cells (AML); assay: Cell viability assay (CellTiter-Glo), MOLM-13; format: cell-based; conditions: Homo sapiens, 72 h, n = 3
Description: as §1, §2

[4] = system: HL-60 cells (APML); assay: Cell viability assay (CellTiter-Glo), HL-60; format: cell-based; conditions: Homo sapiens, 72 h, n = 3
Description: as §1, §2

[5] = system: HBEC-5i cell model; assay: In vitro blood–brain barrier permeability (translocation), HBEC-5i cell model; format: in vitro ADME, human; conditions: Translocation 24 h, compound 15 μM
Description: Human cerebral microvascular endothelial cells (HBEC-5i) were cultured as a monolayer on attachment factor protein solution (AF)-coated T-flasks (Gibco), using DMEM/F12 medium (Gibco), supplemented with 10% FBS, 1% penicillin/streptomycin, and 40.0 μg/mL endothelial cell growth supplement (ECGS, Sigma), according to the manufacturer’s instructions. The capacity of the compounds to cross the brain–blood barrier (BBB) was evaluated using an in vitro HBEC-5i cell model, as previously described.[29] Samples from the apical and basolateral sides were collected, and fluorescence intensity was measured using a Varioskan LUX multimode microplate reader. The retention was considered the difference between the initial fluorescence of compounds (100%) and the aggregated apical and basolateral fluorescence.

[6] = system: Raji cells; assay: Mice xenograft model of Burkitt’s lymphoma (subcutaneous Raji cells); format: in vivo
Description: Female adult BALB/c/NSG mice were injected subcutaneously with 1 × 10^6 Raji cells, in a 1:1 solution of Matrigel Matrix (Corning) to create solid tumors. When tumors reached 180 mm^3 on average, mice were randomized into four groups (n = 6/group), and dosing began every 2 days. […] Tumor size and body weight were monitored periodically for 12 days. At the end of the experiment, mice necropsies were performed. Stereological analysis was conducted by the Histopathology Unit at Instituto Gulbenkian de Ciência and by the Comparative Pathology Unit at Instituto de Medicina Molecular João Lobo Antunes. Quantification of metastases and cell necrosis was performed in all groups (n = 5/group). Statistical analysis was conducted using one-way ANOVA. The Dunnet test was used to analyze the statistical significance between the treatment groups and the control.

[7] = system: Her2; conditions: read-out: IC50, Her2; Table S3 heat map; ref SI 1-19; cited from earlier work
[8] = system: PBMCs from CLL patients; assay: Zebrafish patient-derived xenografts of chronic lymphocytic leukemia; format: in vivo; conditions: all zPDXs, 48 h of treatment
Description: Whole blood (3–6 mL) from CLL patients (Supporting Table S1) was collected, and PBMCs were purified by Ficoll-Paque PLUS (GE Healthcare) density centrifugation.
The collected PBMCs were resuspended in RPMI (Biowest) with 3 times their volume and centrifuged at 1400 rpm, 4 °C, for 7 min. Cell pellets were resuspended in DPBS 1× (Biowest) supplemented with universal nuclease at 25 U/mL (Thermo Scientific). Concentration was normalized to […] for zebrafish patient-derived xenograft (zPDX) generation. Prior to drug efficacy analysis in zebrafish, the cells were distributed to proceed for flow cytometry, to determine the percentage of CD19+CD5+ cells within the CD45+ population, from PBMCs of each CLL patient. The maximum tolerated concentration was also determined for each compound in noninjected zebrafish larvae (Supporting Figure S1).
Zebrafish larvae were anesthetized with Tricaine 1×, and thawed PBMCs were microinjected into the perivitelline space of anesthetized zebrafish larvae at 48 h post fertilization. […] At the end of the assay, 4 days post injection, zebrafish xenografts were sacrificed with an overdose of Tricaine 25× and fixed in 4% formaldehyde (Thermo Scientific) overnight, followed by storage in 100% methanol (VWR) at −20 °C.
The whole mount immunofluorescence protocol was started by rehydrating the xenografts through methanol series (75% > 50% > 25% in PBS 1×-Triton 0.1%). Next, the xenografts were permeabilized in PBS 1× with 0.1% (v/v) Triton and incubated in a blocking solution (containing 1% BSA and 1.5% goat serum) for 1 h at room temperature. The xenografts were incubated with the primary antibodies (anti-cleaved caspase 3—Cell Signaling Technology, clone Asp175, 9661, 1:100; anti-human mitochondria—Merck Millipore, clone 113-1, MAB1273, 1:50) diluted in the blocking solution overnight at 4 °C, followed by additional overnight incubation with 1:400 of secondary antibodies: Alexa goat anti-rabbit 594 (35560, Thermo Scientific) and Alexa goat anti-mouse 647 (84545, Thermo Scientific), and nuclei counterstaining with DAPI at 50 μg/mL (Sigma-Aldrich).
All images were obtained using a Zeiss LSM 980 Upright confocal laser scanning microscope. Xenografts were mounted in in-house Mowiol mounting media, and sequential images along tumor’s depth (from cloaca until the end of the tail) with a 5 μm interval were acquired using the z-stack function. […] For tumor burden, the area occupied by the PBMCs in each slice of the z-stack pile was determined by ImageJ software and summed up to obtain the tumor burden per xenograft. […]
Statistical analysis was performed using GraphPad Prism 8. […] A Gaussian distribution was only assumed for data sets that pass both normality tests and were analyzed by an unpaired t-test with Welch’s correction. […]

[9] = target: T1, EGFR (Homo sapiens, UniProt P00533); conditions: cited from earlier work
T1 construct: host or cells: HEK296T (so in the source)
T1 sequence (P00533 25-1210): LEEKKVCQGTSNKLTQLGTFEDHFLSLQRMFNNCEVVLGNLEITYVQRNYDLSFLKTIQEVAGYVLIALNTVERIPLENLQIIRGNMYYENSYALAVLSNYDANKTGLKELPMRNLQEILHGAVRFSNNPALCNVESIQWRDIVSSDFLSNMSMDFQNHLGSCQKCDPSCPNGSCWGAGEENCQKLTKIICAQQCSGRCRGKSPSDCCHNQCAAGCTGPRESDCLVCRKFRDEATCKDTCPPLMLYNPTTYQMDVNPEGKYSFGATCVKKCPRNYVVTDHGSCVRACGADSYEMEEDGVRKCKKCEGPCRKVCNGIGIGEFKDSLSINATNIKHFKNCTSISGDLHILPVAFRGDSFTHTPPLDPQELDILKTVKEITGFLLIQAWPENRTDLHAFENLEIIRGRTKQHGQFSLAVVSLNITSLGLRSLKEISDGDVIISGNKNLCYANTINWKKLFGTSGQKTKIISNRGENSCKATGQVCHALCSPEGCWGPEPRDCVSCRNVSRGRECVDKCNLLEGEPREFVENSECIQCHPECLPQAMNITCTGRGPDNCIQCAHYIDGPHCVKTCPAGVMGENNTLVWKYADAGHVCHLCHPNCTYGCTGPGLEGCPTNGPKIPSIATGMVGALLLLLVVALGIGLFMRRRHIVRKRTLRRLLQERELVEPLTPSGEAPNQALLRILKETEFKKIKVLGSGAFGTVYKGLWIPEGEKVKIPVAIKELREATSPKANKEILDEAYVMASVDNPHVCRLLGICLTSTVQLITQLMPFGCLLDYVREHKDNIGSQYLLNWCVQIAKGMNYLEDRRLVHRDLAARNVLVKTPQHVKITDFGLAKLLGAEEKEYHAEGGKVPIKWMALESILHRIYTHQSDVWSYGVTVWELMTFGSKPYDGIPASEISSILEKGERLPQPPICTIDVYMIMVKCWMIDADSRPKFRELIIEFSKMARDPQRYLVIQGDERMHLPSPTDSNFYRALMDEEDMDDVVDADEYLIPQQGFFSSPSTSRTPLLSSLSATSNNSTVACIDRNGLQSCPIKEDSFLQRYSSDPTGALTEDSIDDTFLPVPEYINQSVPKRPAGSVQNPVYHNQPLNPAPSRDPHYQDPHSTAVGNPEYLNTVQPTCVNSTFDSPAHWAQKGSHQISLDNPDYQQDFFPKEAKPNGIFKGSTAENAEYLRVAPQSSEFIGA

[10] = target: BTK (Homo sapiens, UniProt Q06187); set-up: purchased Promega Corporation V2941; conditions: Table S3 heat map; ref SI 1-19; read-out: IC50, BTK; cited from earlier work
Chain of BTK (Q06187 whole entry): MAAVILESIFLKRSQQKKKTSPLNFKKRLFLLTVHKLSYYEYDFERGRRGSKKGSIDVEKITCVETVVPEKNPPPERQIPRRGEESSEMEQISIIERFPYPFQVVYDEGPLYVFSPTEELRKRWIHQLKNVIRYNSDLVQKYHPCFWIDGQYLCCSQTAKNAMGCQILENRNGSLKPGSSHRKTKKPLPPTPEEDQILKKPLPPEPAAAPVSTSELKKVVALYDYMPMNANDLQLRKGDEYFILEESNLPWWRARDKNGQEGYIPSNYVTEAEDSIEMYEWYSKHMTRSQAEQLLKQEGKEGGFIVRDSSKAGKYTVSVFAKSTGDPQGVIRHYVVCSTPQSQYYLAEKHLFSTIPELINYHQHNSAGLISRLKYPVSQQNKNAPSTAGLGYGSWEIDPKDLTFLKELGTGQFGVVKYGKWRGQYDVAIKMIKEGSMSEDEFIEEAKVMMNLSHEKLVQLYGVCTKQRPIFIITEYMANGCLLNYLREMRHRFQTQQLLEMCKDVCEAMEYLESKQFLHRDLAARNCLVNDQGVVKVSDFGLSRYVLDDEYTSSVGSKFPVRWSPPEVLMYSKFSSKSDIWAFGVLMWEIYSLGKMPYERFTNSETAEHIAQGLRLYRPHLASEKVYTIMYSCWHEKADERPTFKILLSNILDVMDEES

[11] = target: T2, TXK (Homo sapiens, UniProt P42681); conditions: cited from earlier work
T2 construct: host or cells: HEK296T (so in the source)
T2 sequence (P42681 1-527): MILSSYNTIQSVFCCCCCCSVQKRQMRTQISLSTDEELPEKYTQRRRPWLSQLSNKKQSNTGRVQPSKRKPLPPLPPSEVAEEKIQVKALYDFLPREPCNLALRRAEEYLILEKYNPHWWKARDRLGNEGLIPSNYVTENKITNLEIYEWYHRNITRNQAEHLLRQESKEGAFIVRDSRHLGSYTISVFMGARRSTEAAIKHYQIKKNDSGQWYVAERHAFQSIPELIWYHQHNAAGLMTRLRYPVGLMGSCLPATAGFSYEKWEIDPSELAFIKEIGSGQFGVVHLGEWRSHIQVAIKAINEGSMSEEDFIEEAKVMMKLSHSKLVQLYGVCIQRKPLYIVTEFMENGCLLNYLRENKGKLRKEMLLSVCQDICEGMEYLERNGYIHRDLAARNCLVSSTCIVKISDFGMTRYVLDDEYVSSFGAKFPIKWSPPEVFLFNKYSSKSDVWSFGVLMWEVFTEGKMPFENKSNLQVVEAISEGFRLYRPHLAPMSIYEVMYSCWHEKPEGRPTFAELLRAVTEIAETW

[12] = target: BLK (Homo sapiens, UniProt P51451); conditions: cited from earlier work
Chain of BLK (P51451 whole entry): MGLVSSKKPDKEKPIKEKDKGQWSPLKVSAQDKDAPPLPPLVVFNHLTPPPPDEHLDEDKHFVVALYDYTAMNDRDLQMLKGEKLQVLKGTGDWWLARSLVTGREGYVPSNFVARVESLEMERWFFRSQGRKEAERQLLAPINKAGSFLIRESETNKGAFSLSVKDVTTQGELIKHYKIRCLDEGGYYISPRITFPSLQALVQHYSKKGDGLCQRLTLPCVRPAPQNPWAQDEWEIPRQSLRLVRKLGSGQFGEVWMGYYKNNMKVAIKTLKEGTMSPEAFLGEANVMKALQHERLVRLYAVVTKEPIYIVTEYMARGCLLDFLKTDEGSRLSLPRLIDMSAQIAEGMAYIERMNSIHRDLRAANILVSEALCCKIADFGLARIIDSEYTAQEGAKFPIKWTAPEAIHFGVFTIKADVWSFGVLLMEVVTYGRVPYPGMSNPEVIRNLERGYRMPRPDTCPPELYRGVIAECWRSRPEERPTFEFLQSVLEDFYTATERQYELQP

[13] = target: T3, TEC (Homo sapiens, UniProt P42680); conditions: 1 µM inhibition screening; ref SI 8–10; cited from earlier work
T3 construct: host or cells: HEK296T (so in the source)
T3 sequence (P42680 1-631): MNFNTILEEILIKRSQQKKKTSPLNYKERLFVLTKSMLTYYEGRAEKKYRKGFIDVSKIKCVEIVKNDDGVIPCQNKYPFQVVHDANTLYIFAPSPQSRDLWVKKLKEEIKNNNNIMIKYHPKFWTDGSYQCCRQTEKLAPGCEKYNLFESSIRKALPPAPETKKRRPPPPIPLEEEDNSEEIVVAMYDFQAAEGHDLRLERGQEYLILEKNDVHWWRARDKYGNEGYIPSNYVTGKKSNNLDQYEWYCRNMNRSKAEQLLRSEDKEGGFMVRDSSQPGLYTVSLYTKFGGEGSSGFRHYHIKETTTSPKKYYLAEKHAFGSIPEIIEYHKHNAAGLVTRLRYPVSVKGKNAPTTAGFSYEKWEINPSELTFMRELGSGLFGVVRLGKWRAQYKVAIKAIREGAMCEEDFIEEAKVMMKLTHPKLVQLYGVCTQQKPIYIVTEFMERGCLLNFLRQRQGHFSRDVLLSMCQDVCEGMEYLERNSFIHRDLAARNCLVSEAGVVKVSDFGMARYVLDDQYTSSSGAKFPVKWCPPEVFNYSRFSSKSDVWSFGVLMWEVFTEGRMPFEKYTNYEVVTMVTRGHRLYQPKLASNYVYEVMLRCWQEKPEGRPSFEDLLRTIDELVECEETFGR

[14] = 10 mg/kg, average of 5 animals, stereological analysis
[15] = 10 mg/kg, individual animals #1 to #5 in order
[16] = 1 µM inhibition screening, ref SI 8–10

IC50 [1]: 36200 ± 310 nM
IC50 [3]: ~460 nM
IC50 [4]: 7740 ± 30 nM
% Fluorescence, Basolateral side (permeability to the BBB) [5]: 51.9%
SMILES: C=CC(=O)N1CCC[C@@H](n2nc(-c3ccc(Oc4ccccc4)cc3)c3c(N)ncnc32)C1 [ibrutinib, reference compound]
IC50 [2]: ~70 nM
reduction in percentage of metastases ([6]; 10 mg/kg i.p. every 2 days, n = 5/group): around 30%
Metastasis volume, Brain, Average [6, 14]: 0.78 mm³
Metastasis volume, Liver, Average [6, 14]: 4.73 mm³
Metastasis volume, Lung, Average [6, 14]: 26.92 mm³
Metastasis volume, Spinal, Average [6, 14]: 51.37 mm³
Secondary tumour, Average [6, 14]: 64.21 mm³
Metastasis volume, Brain, single animals [6, 15]: 0.86 mm³ and 0.82 mm³ and 0.00 mm³ and 1.72 mm³ and 0.48 mm³
Metastasis volume, Liver, single animals [6, 15]: 12.05 mm³ and 11.54 mm³ and 0.03 mm³ and 0.00 mm³ (2×)
Metastasis volume, Lung, single animals [6, 15]: 134.59 mm³ and 0.00 mm³ (4×)
Metastasis volume, Spinal, single animals [6, 15]: 55.71 mm³ and 86.64 mm³ and 4.378 mm³ and 10.76 mm³ and 99.35 mm³
Secondary tumour, single animals [6, 15]: 96.59 mm³ and 0.00 mm³ (3×) and 224.46 mm³

SMILES: CC1(C)CCC(CN2CCN(c3ccc(C(=O)NS(=O)(=O)c4ccc(NCC5CCOCC5)c([N+](=O)[O-])c4)c(Oc4cnc5[nH]ccc5c4)c3)CC2)=C(c2ccc(Cl)cc2)C1 [venetoclax, reference compound]
effect on tumor incidence and burden [8]: major impact on tumor incidence and burden

SMILES: NC(=O)[C@H]1CCN(c2ncnc(N)c2F)C[C@@H]1N1CCC[C@@H](Nc2cc(Cl)cc(C(F)(F)F)c2)C1=O [Vecabrutinib]
IC50 ([9]; Table S3 heat map, ref SI 1-19): > 6000 nM
IC50 [10]: 3 nM

IC50 [3]: 28400 ± 30 nM
% Fluorescence, Basolateral side (permeability to the BBB) [5]: 29.2%
SMILES: CC#CC(=O)N1CCC[C@H]1c1nc(-c2ccc(C(=O)Nc3ccccn3)cc2)c2c(N)nccn12 [acalabrutinib]

SMILES: CC#CC(=O)N1CC[C@@H](n2c(=O)n(-c3ccc(Oc4ccccc4)cc3)c3c(N)ncnc32)C1 [Tirabrutinib, tirabrutinib]
IC50 ([11]; Table S3 heat map, ref SI 1-19): 92 nM
IC50 ([12]; read-out: IC50, BLK, Table S3 heat map, ref SI 1-19): 300 nM
IC50 [7]: 7310 nM

SMILES: C=CC(=O)N1CCC(CNc2ncnc(N)c2-c2ccc(Oc3ccccc3)cc2)CC1 [Evobrutinib, evobrutinib]
inhibition, TEC [13]: 82%
inhibition, TXK [11, 16]: 36%
inhibition, EGFR [9, 16]: 0%
inhibition, BLK [12, 16]: 36%

SMILES: C=CC(=O)N1CCC([C@@H]2CCNc3c(C(N)=O)c(-c4ccc(Oc5ccccc5)cc4)nn32)CC1 [Zanubrutinib, zanubrutinib]
IC50 [7]: 661 nM
